Measurements taken from US12435059B2, “AMP-activated protein kinase inhibitors and methods of making and using the same” (The Regents of the University of Colorado, priority 2019, dated 2025).
Where two headings read alike, the source gives them in different places.

Tests used:
Assay in all cases: biochemical
Format in all cases: binding
468 kinases [1] = biological target: 468 kinases (Homo sapiens, UniProt Q15759); details: p38-beta; read-out: % Inhibition @ 100 nM
468 kinases [2] = biological target: 468 kinases (Homo sapiens, UniProt Q14680); details: MELK; read-out: % Inhibition @ 100 nM
468 kinases [3] = biological target: 468 kinases (Homo sapiens, UniProt P41743); details: PRKCI; read-out: % Inhibition @ 100 nM
468 kinases [4] = biological target: 468 kinases (Homo sapiens, UniProt P78368); details: CSNK1G2; read-out: % Inhibition @ 100 nM
468 kinases [5] = biological target: 468 kinases (Homo sapiens, UniProt P51957); details: NEK4; read-out: % Inhibition @ 100 nM
468 kinases [6] = biological target: 468 kinases (Homo sapiens, UniProt Q00526); details: CDK3; read-out: % Inhibition @ 100 nM
468 kinases [7] = biological target: 468 kinases (Homo sapiens, UniProt P29317); details: EPHA2; read-out: % Inhibition @ 100 nM
468 kinases [8] = biological target: 468 kinases (Homo sapiens, UniProt Q9Y2I7); details: PIKFYVE; read-out: % Inhibition @ 100 nM
468 kinases [9] = biological target: 468 kinases (Homo sapiens, UniProt Q13627); details: DYRK1A; read-out: % Inhibition @ 100 nM
468 kinases [10] = biological target: 468 kinases (Homo sapiens, UniProt O43283); details: LZK; read-out: % Inhibition @ 100 nM
468 kinases [11] = biological target: 468 kinases (Homo sapiens, UniProt P00519, Q252H); details: read-out: % Inhibition @ 100 nM
468 kinases [12] = biological target: 468 kinases (Homo sapiens, UniProt Q96PY6); details: NEK1; read-out: % Inhibition @ 100 nM
468 kinases [13] = biological target: 468 kinases (Homo sapiens, UniProt P29597); details: read-out: % Inhibition @ 100 nM
468 kinases [14] = biological target: 468 kinases (Homo sapiens, UniProt Q14012); details: CAMK1; read-out: % Inhibition @ 100 nM
468 kinases [15] = biological target: 468 kinases (Homo sapiens, UniProt Q9BX84); details: TRPM6; read-out: % Inhibition @ 100 nM
468 kinases [16] = biological target: 468 kinases (Homo sapiens, UniProt O96017); details: CHEK2; read-out: % Inhibition @ 100 nM
468 kinases [17] = biological target: 468 kinases (Homo sapiens, UniProt P21127); details: CDC2L1; read-out: % Inhibition @ 100 nM
468 kinases [18] = biological target: 468 kinases (Homo sapiens, UniProt P0C264); details: SgK110; read-out: % Inhibition @ 100 nM
468 kinases [19] = biological target: 468 kinases (Homo sapiens, UniProt Q12852); details: DLK; read-out: % Inhibition @ 100 nM
468 kinases [20] = biological target: 468 kinases (Homo sapiens, UniProt O75385); details: ULK1; read-out: % Inhibition @ 100 nM
468 kinases [21] = biological target: 468 kinases (Homo sapiens, UniProt P37173); details: TGFBR2; read-out: % Inhibition @ 100 nM
468 kinases [22] = biological target: 468 kinases (Homo sapiens, UniProt P57078); details: RIPK4; read-out: % Inhibition @ 100 nM
468 kinases [23] = biological target: 468 kinases (Homo sapiens, UniProt P12931); details: SRC; read-out: % Inhibition @ 100 nM
468 kinases [24] = biological target: 468 kinases (Homo sapiens, UniProt O96013); details: PAK4; read-out: % Inhibition @ 100 nM
468 kinases [25] = biological target: 468 kinases (Homo sapiens, UniProt O15075); details: DCAMKL1; read-out: % Inhibition @ 100 nM
468 kinases [26] = biological target: 468 kinases (Homo sapiens, UniProt Q5S007, G2019S); details: LRRK2(G2019S); read-out: % Inhibition @ 100 nM
468 kinases [27] = biological target: 468 kinases (Homo sapiens, UniProt Q8IW41); details: MAPKAPK5; read-out: % Inhibition @ 100 nM
468 kinases [28] = biological target: 468 kinases (Homo sapiens, UniProt Q9Y4K4); details: MAP4K5; read-out: % Inhibition @ 100 nM
468 kinases [29] = biological target: 468 kinases (Homo sapiens, UniProt Q86UE8); details: TLK2; read-out: % Inhibition @ 100 nM
468 kinases [30] = biological target: 468 kinases (Homo sapiens, UniProt P07949, V804M); details: RET(V804M); read-out: % Inhibition @ 100 nM
468 kinases [31] = biological target: 468 kinases (Homo sapiens, UniProt Q14004); details: read-out: % Inhibition @ 100 nM, CDC2L5
468 kinases [32] = biological target: 468 kinases (Homo sapiens, UniProt P08631); details: HCK; read-out: % Inhibition @ 100 nM
468 kinases [33] = biological target: 468 kinases (Homo sapiens, UniProt P41240); details: CSK; read-out: % Inhibition @ 100 nM

Row | SMILES | inhibition at 0.1 µM (468 kinases [1]) | inhibition at 0.1 µM (468 kinases [2]) | inhibition at 0.1 µM (468 kinases [3]) | inhibition at 0.1 µM (468 kinases [4]) | inhibition at 0.1 µM (468 kinases [5]) | inhibition at 0.1 µM (468 kinases [6]) | inhibition at 0.1 µM (468 kinases [7]) | inhibition at 0.1 µM (468 kinases [8]) | inhibition at 0.1 µM (468 kinases [9]) | inhibition at 0.1 µM (468 kinases [10]) | inhibition at 0.1 µM (468 kinases [11]; ABL1 (Q252H)-nonphosphorylated) | inhibition at 0.1 µM (468 kinases [11]; ABL1 (Q252H)-phosphorylated) | inhibition at 0.1 µM (468 kinases [12]) | inhibition at 0.1 µM (468 kinases [13]; TYK2(JH1domain-catalytic)) | inhibition at 0.1 µM (468 kinases [13]; TYK2(JH2domain-pseudokinase)) | inhibition at 0.1 µM (468 kinases [14]) | inhibition at 0.1 µM (468 kinases [15]) | inhibition at 0.1 µM (468 kinases [16]) | inhibition at 0.1 µM (468 kinases [17]) | inhibition at 0.1 µM (468 kinases [18]) | also measured
1 | CCN(CC)CCNC(=O)c1c(C)[nH]c(/C=C2\C(=O)Nc3ccc(CCO)cc32)c1C [Compound No. 10, (Z)—N-(2-(Diethylamino)ethyl)-5-((5-(2-hydroxyethyl)-2-oxoindolin-3-ylidene)methyl)-2,4-dimethyl-1H-pyrrole-3-carboxamide] | 80% | 4% | 12% | 0% | 0% | 0% | 2% | 6% | 74% | 0% | 33% | 19% | 9% | 1% | 0% | 0% | 0% | 83% | 0% | 58% | inhibition at 0.1 µM (468 kinases [19]): 86%; inhibition at 0.1 µM (468 kinases [20]): 58%; inhibition at 0.1 µM (468 kinases [21]): 0%; inhibition at 0.1 µM (468 kinases [22]): 12%; inhibition at 0.1 µM (468 kinases [23]): 15%; inhibition at 0.1 µM (468 kinases [24]): 0%; inhibition at 0.1 µM (468 kinases [25]): 32%; inhibition at 0.1 µM (468 kinases [26]): 89%; inhibition at 0.1 µM (468 kinases [27]): 0%; inhibition at 0.1 µM (468 kinases [28]): 52%; inhibition at 0.1 µM (468 kinases [29]): 0%; inhibition at 0.1 µM (468 kinases [30]): 86%; inhibition at 0.1 µM (468 kinases [31]): 27%; inhibition at 0.1 µM (468 kinases [32]): 2%; inhibition at 0.1 µM (468 kinases [33]): 0%
2 | CCN(CC)CCNC(=O)c1c(C)[nH]c(/C=C2\C(=O)Nc3ccc(CCC(N)=O)cc32)c1C [Compound No. 16, (Z)-5-((5-(3-Amino-3-oxopropyl)-2-oxoindolin-3-ylidene)methyl)-N-(2-(diethylamino)ethyl)-2,4-dimethyl-1H-pyrrole-3-carboxamide] | 0% | 16% | 37% | 3% | 9% | 19% | 0% | 27% | 93.3% | 61% | 55% | 54% | 77% | 33% | 39% | 0% | 29% | 93.2% | 7% | 0% | inhibition at 0.1 µM (468 kinases [19]): 100%; inhibition at 0.1 µM (468 kinases [20]): 56%; inhibition at 0.1 µM (468 kinases [21]): 0%; inhibition at 0.1 µM (468 kinases [22]): 14%; inhibition at 0.1 µM (468 kinases [23]): 6%; inhibition at 0.1 µM (468 kinases [24]): 0%; inhibition at 0.1 µM (468 kinases [25]): 32%; inhibition at 0.1 µM (468 kinases [26]): 88%; inhibition at 0.1 µM (468 kinases [27]): 28%; inhibition at 0.1 µM (468 kinases [28]): 53%; inhibition at 0.1 µM (468 kinases [29]): 23%; inhibition at 0.1 µM (468 kinases [30]): 99.3%; inhibition at 0.1 µM (468 kinases [31]): 50%; inhibition at 0.1 µM (468 kinases [32]): 0%; inhibition at 0.1 µM (468 kinases [33]): 1%
